# Measured values taken from US20210254056A1, “IDENTIFICATION AND TARGETED MODULATION OF GENE SIGNALING NETWORKS” (CAMP4 THERAPEUTICS CORPORATION, priority 2017, published 2021).
# Where a name gives a salt, the structure may show the parent alone.
# System: hepatocytes
# Experiment: RNA-seq of hepatocytes treated with Phase III failure compounds
# Conditions: for Number (#) of genes having significantly changed expression: Phase III failure compounds, significance: FPKM≥0.5, log 2(fold-change)≥1, q-value≥0.05 (so in the source); for significant modulation of expression of disease genes: q≤0.05, genes in the value or listed in the block; for B2M expression, RNA-seq result: gene B2M; for B9D2 expression, RNA-seq result: gene B9D2; for BAAT expression, RNA-seq result: gene BAAT; for BBOX1 expression, RNA-seq result: gene BBOX1; for BBS10 expression, RNA-seq result: gene BBS10; for BCHE expression, RNA-seq result: gene BCHE; for BCKDHB expression, RNA-seq result: gene BCKDHB; for BCKDK expression, RNA-seq result: gene BCKDK; for BCO1 expression, RNA-seq result: gene BCO1; for BCR expression, RNA-seq result: gene BCR; for BLNK expression, RNA-seq result: gene BLNK; for BLOC1S3 expression, RNA-seq result: gene BLOC1S3; for BMPR1A expression, RNA-seq result: gene BMPR1A; for BRAF expression, RNA-seq result: gene BRAF; for BSCL2 expression, RNA-seq result: gene BSCL2; for BTD expression, RNA-seq result: gene BTD; for C4A expression, RNA-seq result: gene C4A; for C9 expression, RNA-seq result: gene C9; for C10orf10 expression, RNA-seq result: gene C10orf10; for C10orf11 expression, RNA-seq result: gene C10orf11; for C15orf41 expression, RNA-seq result: gene C15orf41; for CA2 expression, RNA-seq result: gene CA2; for CA5A expression, RNA-seq result: gene CA5A; for CA12 expression, RNA-seq result: gene CA12; for CAV1 expression, RNA-seq result: gene CAV1; for CCND1 expression, RNA-seq result: gene CCND1; for CD46 expression, RNA-seq result: gene CD46; for CD81 expression, RNA-seq result: gene CD81; for CD320 expression, RNA-seq result: gene CD320; for CDAN1 expression, RNA-seq result: gene CDAN1; for CDH1 expression, RNA-seq result: gene CDH1; for CEP19 expression, RNA-seq result: gene CEP19; for CEP83 expression, RNA-seq result: gene CEP83; for CEP164 expression, RNA-seq result: gene CEP164; for CEP290 expression, RNA-seq result: gene CEP290; for CFB expression, RNA-seq result: gene CFB; for CFHR2 expression, RNA-seq result: gene CFHR2; for CHRM3 expression, RNA-seq result: gene CHRM3; for CIDEC expression, RNA-seq result: gene CIDEC; for CLDN1 expression, RNA-seq result: gene CLDN1; for COG1 expression, RNA-seq result: gene COG1; for significant changes in gene expression: RNA-seq of Table 36, FPKM≥0.5, log 2(fold-change)≥1, q-value≤0.05; for significant modulation of expression of any of the genes analyzed: p≤0.05
# Description: RNA-seq was performed to determine the effects of the compounds on hepatocytes.
# Significance was determined by the criteria of FPKM≥0.5, a log 2(fold-change)≥1, and a […].
smiles,measurement,setting,value
"O=C(N[C@H]1CN2CCC1CC2)c1cc2cccc(Cl)c2s1 [EVP-6124 (hydrochloride) (encenicline), encenicline]",Number (#) of genes having significantly changed expression,"RNA-seq, hepatocytes",141
same,significant modulation of expression of disease genes,"RNA-seq, hepatocytes",significantly (q≤0.05) modulate expression
same,"B2M expression, RNA-seq result",hepatocytes,0.16
same,"B9D2 expression, RNA-seq result",hepatocytes,−0.55
same,"BAAT expression, RNA-seq result",hepatocytes,0.61
same,"BBOX1 expression, RNA-seq result",hepatocytes,−0.14
same,"BBS10 expression, RNA-seq result",hepatocytes,−0.33
same,"BCHE expression, RNA-seq result",hepatocytes,−0.41
same,"BCKDHB expression, RNA-seq result",hepatocytes,−0.31
same,"BCKDK expression, RNA-seq result",hepatocytes,−0.23
same,"BCO1 expression, RNA-seq result",hepatocytes,0.24
same,"BCR expression, RNA-seq result",hepatocytes,−0.06
same,"BLNK expression, RNA-seq result",hepatocytes,0.39
same,"BLOC1S3 expression, RNA-seq result",hepatocytes,0.46
same,"BMPR1A expression, RNA-seq result",hepatocytes,0.09
same,"BRAF expression, RNA-seq result",hepatocytes,0.04
same,"BSCL2 expression, RNA-seq result",hepatocytes,−0.54
same,"BTD expression, RNA-seq result",hepatocytes,−0.08
same,"C4A expression, RNA-seq result",hepatocytes,0.24
same,"C9 expression, RNA-seq result",hepatocytes,−0.11
same,"C10orf10 expression, RNA-seq result",hepatocytes,−0.31
same,"C10orf11 expression, RNA-seq result",hepatocytes,0.1
same,"C15orf41 expression, RNA-seq result",hepatocytes,−0.2
same,"CA2 expression, RNA-seq result",hepatocytes,0.6
same,"CA5A expression, RNA-seq result",hepatocytes,0.1
same,"CA12 expression, RNA-seq result",hepatocytes,0.58
same,"CAV1 expression, RNA-seq result",hepatocytes,−0.81
same,"CCND1 expression, RNA-seq result",hepatocytes,−0.9
same,"CD46 expression, RNA-seq result",hepatocytes,0.24
same,"CD81 expression, RNA-seq result",hepatocytes,0.27
same,"CD320 expression, RNA-seq result",hepatocytes,−0.04
same,"CDAN1 expression, RNA-seq result",hepatocytes,−0.04
same,"CDH1 expression, RNA-seq result",hepatocytes,−0.12
same,"CEP19 expression, RNA-seq result",hepatocytes,−0.06
same,"CEP83 expression, RNA-seq result",hepatocytes,−0.3
same,"CEP164 expression, RNA-seq result",hepatocytes,−0.12
same,"CEP290 expression, RNA-seq result",hepatocytes,−0.26
same,"CFB expression, RNA-seq result",hepatocytes,0.1
same,"CFHR2 expression, RNA-seq result",hepatocytes,−0.08
same,"CHRM3 expression, RNA-seq result",hepatocytes,0.28
same,"CIDEC expression, RNA-seq result",hepatocytes,−0.13
same,"CLDN1 expression, RNA-seq result",hepatocytes,−0.46
same,"COG1 expression, RNA-seq result",hepatocytes,−0.19
"Cc1ccc2c(c1)c1c(n2CCc2ccc(C)nc2)CCN(C)C1 [Latrepirdine (dihydrochloride) (64), Latrepirdine]",significant changes in gene expression,,not observed to cause any significant changes in gene expression
"CCCn1c(=O)c2[nH]c(C34CC5CC(CC3C5)C4)nc2n(CCC)c1=O [Rolofylline (KW-3902), Rolofylline]",significant changes in gene expression,,not observed to cause any significant changes in gene expression
same,significant modulation of expression of any of the genes analyzed,"RNA-seq, hepatocytes",not observed to significantly modulate expression
CO[C@H]1C[C@@H]2CC[C@@H](C)[C@@](O)(O2)C(=O)C(=O)N2CCCC[C@H]2C(=O)O[C@H]([C@H](C)C[C@@H]2CC[C@@H](OC(=O)C(C)(CO)CO)[C@H](OC)C2)CC(=O)[C@H](C)/C=C(\C)[C@@H](O)[C@@H](OC)C(=O)[C@H](C)C[C@H](C)/C=C/C=C/C=C/1C [Temsirolimus],Number (#) of genes having significantly changed expression,"RNA-seq, hepatocytes",34
same,significant modulation of expression of any of the genes analyzed,"RNA-seq, hepatocytes",not observed to significantly modulate expression
same,effect on disease gene expression,"RNA-seq, hepatocytes",no effect on any disease gene
"CCCCCCCCCCCCCCCCCCOP(=O)([O-])OC1CC[N+](C)(C)CC1 [Perifosine (KRX-0401), Perifosine]",significant modulation of expression of any of the genes analyzed,"RNA-seq, hepatocytes",not observed to significantly modulate expression
COCCOc1ccc(N2CCN(CCn3ncc4c3nc(N)n3nc(-c5ccco5)nc43)CC2)cc1 [Preladenant],Number (#) of genes having significantly changed expression,"RNA-seq, hepatocytes",317
same,significant modulation of expression of disease genes,"RNA-seq, hepatocytes",significantly (q≤0.05) modulate expression
same,"B2M expression, RNA-seq result",hepatocytes,0.09
same,"B9D2 expression, RNA-seq result",hepatocytes,−0.56
same,"BAAT expression, RNA-seq result",hepatocytes,−0.58
same,"BBOX1 expression, RNA-seq result",hepatocytes,−0.56
same,"BBS10 expression, RNA-seq result",hepatocytes,−0.21
same,"BCHE expression, RNA-seq result",hepatocytes,−0.63
same,"BCKDHB expression, RNA-seq result",hepatocytes,−0.78
same,"BCKDK expression, RNA-seq result",hepatocytes,−0.48
same,"BCO1 expression, RNA-seq result",hepatocytes,−1.07
same,"BCR expression, RNA-seq result",hepatocytes,−0.62
same,"BLNK expression, RNA-seq result",hepatocytes,0.53
same,"BLOC1S3 expression, RNA-seq result",hepatocytes,0.3
same,"BMPR1A expression, RNA-seq result",hepatocytes,0.11
same,"BRAF expression, RNA-seq result",hepatocytes,0.46
same,"BSCL2 expression, RNA-seq result",hepatocytes,−0.26
same,"BTD expression, RNA-seq result",hepatocytes,−0.16
same,"C4A expression, RNA-seq result",hepatocytes,0.16
same,"C9 expression, RNA-seq result",hepatocytes,−0.38
same,"C10orf10 expression, RNA-seq result",hepatocytes,0.14
same,"C10orf11 expression, RNA-seq result",hepatocytes,−0.32
same,"C15orf41 expression, RNA-seq result",hepatocytes,−0.17
same,"CA2 expression, RNA-seq result",hepatocytes,0.76
same,"CA5A expression, RNA-seq result",hepatocytes,−0.56
same,"CA12 expression, RNA-seq result",hepatocytes,0.43
same,"CAV1 expression, RNA-seq result",hepatocytes,−0.02
same,"CCND1 expression, RNA-seq result",hepatocytes,−0.89
same,"CD46 expression, RNA-seq result",hepatocytes,0.34
same,"CD81 expression, RNA-seq result",hepatocytes,−0.26
same,"CD320 expression, RNA-seq result",hepatocytes,−0.95
same,"CDAN1 expression, RNA-seq result",hepatocytes,−0.32
same,"CDH1 expression, RNA-seq result",hepatocytes,−0.29
same,"CEP19 expression, RNA-seq result",hepatocytes,−0.54
same,"CEP83 expression, RNA-seq result",hepatocytes,0.05
same,"CEP164 expression, RNA-seq result",hepatocytes,−0.48
same,"CEP290 expression, RNA-seq result",hepatocytes,0.41
same,"CFB expression, RNA-seq result",hepatocytes,0.26
same,"CFHR2 expression, RNA-seq result",hepatocytes,−0.22
same,"CHRM3 expression, RNA-seq result",hepatocytes,0.06
same,"CIDEC expression, RNA-seq result",hepatocytes,−1.38
same,"CLDN1 expression, RNA-seq result",hepatocytes,−0.26
same,"COG1 expression, RNA-seq result",hepatocytes,−0.08
